Series [1] deals with HCV genotype 1b (Con1) replicon. Briefly: Effect of serum concentration on anti-HCV activity, luciferase assay in Huh-luc/neo-ET cells. It counts as cell-based, Hepatitis C virus. The conditions noted are these: for EC50: 72 hrs. As for the experimental part:
Cells were harvested after 72 hrs for luciferase activity assays.
Huh-luc/neo-ET cells were incubated with compound 1, 4 or 6 for 72 hrs and the anti-HCV activity was evaluated by measuring the reduction of reporter luciferase activities.

For the next series, the system named is Huh-7 cells. As to the kind of experiment: Cytotoxicity in Huh-7 cells (methylene blue or CellTiter-Glo). It counts as cell-based. As to conditions: Huh-7 cells, 3 days; read-out: Cytotoxicity CC50 Huh-7. As for the experimental part: (§1) Determination of cytotoxicity and mitochondrial DNA toxicity. Exponentially growing Huh-7 cells were seeded at a density of 1×10^4 cells per well in a 24-well plate and incubated with TPP analogues for 3 days. Cells were fixed and stained with 0.5% methylene blue in 50% ethanol followed by extensive washing. After the plates were air dried, cells were solubilized in 1% sarkosyl and cell growth was determined from the extent of absorption by spectrophotometric measurements at 595 nm (Biotek Instruments). For compounds whose dark color interfered with 595-nm reading, cytotoxicity was measured by the CellTiter-Glo luminesecent cell viability assay following manufacturer's description (Promega). Cytotoxicity in MT-2 cells was determined from colorimetric quantitation of uninfected MT-2 cells after 5 days of coincubation.
On the technique in general: ATP-based viability assays read luminescence as a measure of living cells.

Series [2] relates to HCV genotype 1b (Con 1 isolate) subgenomic replicon. As to the kind of experiment: microbe, parasite or virus in culture. It counts as cell-based, Hepatitis C virus. As for the experimental part: (§2) Cells. HCV genotype 1b (Con 1 isolate) subgenomic replicon cell line with luciferase reporter (Huh-luc/neo-ET) was kindly provided by Ralf Bartenschlager from the University of Heidelberg (37). Huh-luc/neo-ET cells were cultured in Dulbecco's modified Eagle medium (DMEM , supplemented with 10% fetal bovine serum (FBS), 1 mM nonessential amino acids, and 250 μg/ml of G418 (Invitrogen). Genotype 2a (JFH-I isolate) subgenomic replicon cells YSGR-JFH were cultured in DMEM containing 10 To fetal calf serum, 1 mM nonessential amino acids and 400 μg/ml G418 (31). An additional genotype 1b (Conl) replicon cell line (4291BBix) was cultured in similar media but with 3 μg/ml blasticidin (22).
(§3) Determination of antiviral activities. Ff-luciferase reporter activity was used to monitor the replication of HCV replicons in Huhluc/neo-ET cells free from G418. Replicon cells were seeded at the density of 5×10^3 cells per well in 96-well plates. The following day, replicon cells were incubated in duplicates with DMSO or serially diluted tetraphenylporphyrin (TPP) analogues at 37″C. 72 hrs after co-incubation, cells were lysed with ice-cold passive lysis reagent after PBS wash, and the luciferase activity was measured with the luciferase assay kit (Promega) and Tecan FARCyte luminometer (GE Healthcare) following the manufacturers' descriptions. The relative light units (RLU) were adjusted as percentage readings of the compound-free controls and the 50% effective concentration (EC50) was determined from dose-effect curve by nonlinear regression analysis using Origin 6.1 (OriginLab Software). TPP analogues were also screened in vitro against HIV-I IIIB and HBV as previously described (26,41). Briefly 1×10^3 MT-2 cells per well were exposed in triplets to 0.1TC1D50/cell (50% of the tissue culture infectious dose) of HIV-1 IIIB and cultured in the presence of compounds. The EC50 values were estimated by MTT-based colorimetric quantitation of viral CPE after 5 days. Anti-HBV activities were evaluated in 2.2.15 cells by means of Southern DNA hybridization.

Series [3] relates to HCV genotype 2a (JFH-1) replicon. As to the kind of experiment: HCV RNA quantification by qRT-PCR in YSGR-JFH cells. It counts as cell-based, Hepatitis C virus. As for the experimental part:
as §2
Activity of compound 6 against genotype 2a (JFH-I) replicons. In parallel to Huh-luc/neo-ET cells, 1×10^5 YSGR-JFH cells per well were incubated with DMSO control, compound 6, or recombinant human IFNα-2a (Pestka Biomedical Laboratories) in 6-well plates. Cells were harvested after 72 hrs of co-incubation and HCV RNAs were quantitated by qRT-PCR and normalized as described above.
For orientation: In qPCR the cycle at which signal appears reflects the starting amount.

For the next series, the system named is MT-2 cells. Briefly: Cytotoxicity in uninfected MT-2 cells. It counts as cell-based. The conditions noted are these: uninfected MT-2 cells, 5 days; read-out: Cytotoxicity CC50 MT-2. The protocol: as §1
Another series relates to HBV. Briefly: Anti-HBV activity in 2.2.15 cells by Southern DNA hybridization. It counts as cell-based. The conditions noted are these: read-out: Antiviral Activity EC50 HBV. As for the experimental part:
as §3

Like-named read-outs stand apart in the source and are kept apart here.

The EC50 is the concentration that produces a half-maximal response. For orientation: CC50 means the concentration at which the toxic effect on the cells reaches its halfway point. On to `O=C(O)c1cc(C(=O)O)cc(-c2ccc(-c3c4nc(c(-c5ccc(-c6cc(C(=O)O)cc(C(=O)O)c6)cc5)c5ccc([nH]5)c(-c5ccc(-c6cc(C(=O)O)cc(C(=O)O)c6)cc5)c5nc(c(-c6ccc(-c7cc(C(=O)O)cc(C(=O)O)c7)cc6)c6ccc3[nH]6)C=C5)C=C4)cc2)c1` [Compound 6, Meso-teftakis-(3,5-dicarboxy-4,4′-biphenyl)porphyrin], for which the 50% effective concentration (EC50) in series [1] (5% FBS, read-out: EC50 5% FBS) was 13 ± 3 nM; in series [1] (40% FBS, read-out: EC50 40% FBS), 69 ± 11 nM; in series [1] (extrapolation of the plot of EC50 vs serum amount, read-out: EC50 0% FBS (Theoretical)), 6.5 nM; in series [1] (read-out: EC50 10% FBS, 10% FBS), 24 ± 5 nM; in series [1] (read-out: EC50 20% FBS, 20% FBS) it was 39 ± 5 nM; in series [2] (HCV replicons in vitro, read-out: anti-HCV EC50), 24 nM. Besides, the EC50 was 24 ± 5.1 nM in series [2] (Huh-luc/neo-ET, 72 hrs, luciferase, read-out: Antiviral Activity EC50 HCV); 19 ± 5.2 nM in series [2] (Table 3, metal M in porphyrin core, read-out: EC50 anti-HCV activity, metallation of porphyrin core of compound 6); 24 ± 5 nM in series [2] (unit inferred, read-out: EC50 against HCV genotype 1b Conl replicons); 1380 ± 148 nM in series [3] (genotype 2a, 72 hrs, HCV RNA by qRT-PCR, read-out: antiviral EC50 against YSGR-JFH replicon cells); more than 20000 nM in the series on HBV. In addition, the “Fold Change in EC50 5% FBS” value in series [1] (EC50 at 5% FBS as one fold) was 1.00. Also, the “Fold Change in EC50 10% FBS” value in series [1] (relative to EC50 at 5% FBS) stood at 1.92 ± 0.22. Also, the “Fold Change in EC50 20% FBS” value in series [1] (relative to EC50 at 5% FBS) stood at 3.20 ± 0.96. The “Fold Change in EC50 40% FBS” value in series [1] (relative to EC50 at 5% FBS) amounted to 5.56 ± 0.85. The cytotoxic concentration (CC50) was more than 50000 nM in the series on Huh-7 cells and 18000 ± 4240 nM with MT-2 cells. For the same molecule, the “selective index in culture (CC50/EC50)” value in series [2] (CC50 in naïve Huh-7 cells / EC50) is given as “over 2000”. For the same molecule, the “improvement in anti-HCV EC50 over compound 2” value in series [2] (relative to lead compound 2) is given as 75 fold. For the same molecule, the “EC50 in YSGR-JFH (genotype 2a) relative to EC50 in Huh-luc/neo-ET (genotype 1b)” value in series [3] (72 hrs) was “over 57 fold”. In addition, the “less effective against genotype 2a (JFH-1) than against genotype 1b (Conl) replicons” value in series [3] (anti-HCV EC50) was 57 times.

Source of the values: US20110064694A1, “ANTI-HEPATITIS C ACTIVITY OF MESO-TETRAKIS-PORPHYRIN ANALOGUES” (YALE UNIVERSITY, priority 2009, published 2011).
